The text below walks through data of patent publication US20230079819A1, “COMPOUNDS AND USES THEREOF” (Foghorn Therapeutics Inc., priority 2019, published 2023).

The target in one assay is T1, BRM (Homo sapiens, UniProt P51531).
T1 construct: made in house; host or cells: High Five insect cells
Briefly: ATPase catalytic activity of BRM, ADP-Glo in vitro biochemical assay. As to conditions: ATPase catalytic activity, 30 nM BRM, 400 μM ATP. (In general: In ADP-Glo the light output rises with the ADP produced.)

The target in the next assay is T2, BRG-1 (Homo sapiens, UniProt P51532).
T2 construct: made in house; host or cells: High Five insect cells
T2 sequence (P51532 whole entry): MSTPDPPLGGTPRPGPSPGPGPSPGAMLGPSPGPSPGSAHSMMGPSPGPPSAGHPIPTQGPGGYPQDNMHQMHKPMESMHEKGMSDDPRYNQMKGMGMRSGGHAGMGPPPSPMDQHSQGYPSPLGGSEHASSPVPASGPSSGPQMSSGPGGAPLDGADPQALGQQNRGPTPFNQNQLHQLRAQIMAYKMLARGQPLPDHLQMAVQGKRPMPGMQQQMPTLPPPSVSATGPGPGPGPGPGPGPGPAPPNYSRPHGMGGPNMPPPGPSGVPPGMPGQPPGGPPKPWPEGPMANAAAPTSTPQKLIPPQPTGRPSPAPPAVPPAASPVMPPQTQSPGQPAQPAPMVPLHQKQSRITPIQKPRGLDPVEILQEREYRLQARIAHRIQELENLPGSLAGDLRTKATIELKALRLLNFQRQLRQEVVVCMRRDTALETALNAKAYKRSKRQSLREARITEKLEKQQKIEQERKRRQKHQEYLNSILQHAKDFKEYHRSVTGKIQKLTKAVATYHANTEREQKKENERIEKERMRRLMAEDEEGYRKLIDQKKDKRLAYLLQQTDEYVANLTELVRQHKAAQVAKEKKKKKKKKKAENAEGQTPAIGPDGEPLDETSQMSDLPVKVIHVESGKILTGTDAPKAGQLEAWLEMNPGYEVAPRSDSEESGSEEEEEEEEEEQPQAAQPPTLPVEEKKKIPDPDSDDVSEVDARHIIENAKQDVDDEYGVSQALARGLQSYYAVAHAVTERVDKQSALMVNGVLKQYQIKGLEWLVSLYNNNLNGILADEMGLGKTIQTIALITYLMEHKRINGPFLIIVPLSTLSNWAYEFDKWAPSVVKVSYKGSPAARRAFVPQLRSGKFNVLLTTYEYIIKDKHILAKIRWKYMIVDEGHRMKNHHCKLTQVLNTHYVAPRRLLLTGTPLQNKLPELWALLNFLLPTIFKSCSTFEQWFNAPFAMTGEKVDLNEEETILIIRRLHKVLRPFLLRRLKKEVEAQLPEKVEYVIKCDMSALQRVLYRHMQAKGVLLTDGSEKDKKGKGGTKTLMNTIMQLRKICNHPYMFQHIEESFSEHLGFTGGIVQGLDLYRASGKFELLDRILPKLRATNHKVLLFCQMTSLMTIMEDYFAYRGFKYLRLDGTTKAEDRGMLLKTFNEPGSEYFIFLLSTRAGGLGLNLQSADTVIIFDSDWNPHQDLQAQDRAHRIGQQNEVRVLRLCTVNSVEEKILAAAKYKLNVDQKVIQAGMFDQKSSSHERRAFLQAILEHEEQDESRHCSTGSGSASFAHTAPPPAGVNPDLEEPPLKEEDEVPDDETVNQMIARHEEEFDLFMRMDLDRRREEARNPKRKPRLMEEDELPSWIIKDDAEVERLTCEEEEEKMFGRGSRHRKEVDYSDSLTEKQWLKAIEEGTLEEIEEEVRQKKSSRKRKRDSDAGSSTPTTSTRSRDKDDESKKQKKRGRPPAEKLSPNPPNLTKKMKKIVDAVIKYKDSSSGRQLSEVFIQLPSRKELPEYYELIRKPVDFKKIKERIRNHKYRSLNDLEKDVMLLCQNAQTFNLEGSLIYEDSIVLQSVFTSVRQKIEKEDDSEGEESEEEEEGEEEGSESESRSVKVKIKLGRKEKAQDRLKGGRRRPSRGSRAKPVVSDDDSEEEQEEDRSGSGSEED
Briefly: ATPase catalytic activity of BRG-1, ADP-Glo in vitro biochemical assay. As to conditions: ATPase catalytic activity, 30 nM BRG-1, 400 μM ATP.

SMILES strings stand for the structures. Where two headings read alike, the source gives them in different places.

T1 sequence (P51531 whole entry): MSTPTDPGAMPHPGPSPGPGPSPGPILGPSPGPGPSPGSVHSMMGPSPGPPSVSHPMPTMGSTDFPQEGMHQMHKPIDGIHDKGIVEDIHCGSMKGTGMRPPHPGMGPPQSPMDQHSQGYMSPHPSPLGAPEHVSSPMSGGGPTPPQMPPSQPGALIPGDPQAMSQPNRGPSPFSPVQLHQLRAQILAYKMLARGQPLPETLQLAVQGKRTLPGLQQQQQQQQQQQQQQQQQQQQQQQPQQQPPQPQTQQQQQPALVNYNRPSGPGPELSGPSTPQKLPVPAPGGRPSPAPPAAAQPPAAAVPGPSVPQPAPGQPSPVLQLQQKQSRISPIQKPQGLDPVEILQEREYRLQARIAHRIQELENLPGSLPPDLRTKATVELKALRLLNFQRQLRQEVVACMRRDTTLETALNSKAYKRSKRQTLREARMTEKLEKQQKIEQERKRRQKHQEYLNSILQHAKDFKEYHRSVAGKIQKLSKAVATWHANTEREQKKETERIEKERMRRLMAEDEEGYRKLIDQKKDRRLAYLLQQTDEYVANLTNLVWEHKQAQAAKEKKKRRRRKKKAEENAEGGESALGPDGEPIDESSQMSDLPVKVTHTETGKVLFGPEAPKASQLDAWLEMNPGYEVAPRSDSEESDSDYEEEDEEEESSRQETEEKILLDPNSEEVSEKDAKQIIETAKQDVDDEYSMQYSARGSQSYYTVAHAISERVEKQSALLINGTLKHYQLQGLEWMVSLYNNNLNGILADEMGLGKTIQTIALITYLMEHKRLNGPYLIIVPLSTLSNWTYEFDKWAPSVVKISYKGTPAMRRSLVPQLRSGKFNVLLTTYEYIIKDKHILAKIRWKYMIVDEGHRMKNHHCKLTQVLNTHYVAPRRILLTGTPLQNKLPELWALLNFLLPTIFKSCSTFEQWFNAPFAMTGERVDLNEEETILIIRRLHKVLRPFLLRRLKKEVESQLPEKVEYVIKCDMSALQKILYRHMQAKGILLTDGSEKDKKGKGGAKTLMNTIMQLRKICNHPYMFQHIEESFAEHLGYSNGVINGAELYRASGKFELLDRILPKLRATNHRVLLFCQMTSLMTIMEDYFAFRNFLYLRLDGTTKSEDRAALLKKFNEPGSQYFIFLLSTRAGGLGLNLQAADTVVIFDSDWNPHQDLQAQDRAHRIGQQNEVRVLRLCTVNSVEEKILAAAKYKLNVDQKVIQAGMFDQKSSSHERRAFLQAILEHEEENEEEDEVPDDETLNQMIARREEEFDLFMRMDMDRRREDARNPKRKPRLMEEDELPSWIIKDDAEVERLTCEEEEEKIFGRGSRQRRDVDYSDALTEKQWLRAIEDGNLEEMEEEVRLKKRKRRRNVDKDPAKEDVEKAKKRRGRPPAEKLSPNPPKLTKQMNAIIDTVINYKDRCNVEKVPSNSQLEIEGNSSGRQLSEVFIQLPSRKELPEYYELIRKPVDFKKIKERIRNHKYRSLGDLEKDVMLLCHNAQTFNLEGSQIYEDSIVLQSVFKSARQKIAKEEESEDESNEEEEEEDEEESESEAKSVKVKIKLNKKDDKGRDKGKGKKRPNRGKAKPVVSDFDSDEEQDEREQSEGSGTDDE

In the case of `CO[C@@H]1CN(c2cccc(-c3csc(NC(=O)CNC(=O)c4ccn(S(C)(=O)=O)c4)n3)c2)CC[C@@H]1O` (racemic) [Compound 158], the IC50 at BRM (read-out: BRM IP50 (μM)*) and at BRG-1 (read-out: BRG1 IP50 (μM)*) was > 0.01 µM in each case.

`C[C@H]1C[C@H](C)CN(c2cccc(-c3csc(NC(=O)CNC(=O)c4ccn(S(C)(=O)=O)c4)n3)c2)C1` (racemic) [Compound 187]: the IC50 on BRM (read-out: BRM IP50 (μM)*) and at BRG-1 (read-out: BRG1 IP50 (μM)*) was > 0.01 µM each time.

With `CO[C@@H]1CN(c2cccc(-c3csc(NC(=O)CNC(=O)c4ccn(S(C)(=O)=O)c4)n3)c2)C[C@H]1OC` (racemic) [Compound 198], the IC50 at BRM (read-out: BRM IP50 (μM)*) and on BRG-1 (read-out: BRG1 IP50 (μM)*) was > 0.01 µM throughout.

For `CO[C@H]1CN(c2cccc(-c3csc(NC(=O)CNC(=O)c4ccn(C(C)(C)C)c4)n3)n2)CC[C@@H]1O` (racemic) [Compound 310], the results for the IC50 at BRM (read-out: BRM IP50 (μM)*) and on BRG-1 (read-out: BRG1 IP50 (μM)*) were > 0.01 µM and > 0.1 µM, respectively.

As for `C[C@@H]1CC(c2cccc(-c3csc(NC(=O)CNC(=O)c4ccn(S(C)(=O)=O)c4)n3)n2)=C[C@H](C)O1` (racemic) [Compound 350, N-(2-((4-(6-((cis)-2,6-dimethyl-3,6-dihydro-2H-pyran-4-yl)pyridin-2-yl)thiazol-2-yl)amino)-2-oxoethyl)-1-(methylsulfonyl)-1H-pyrrole-3-carboxamide], the IC50 on BRM (read-out: BRM IP50 (μM)*) and at BRG-1 (read-out: BRG1 IP50 (μM)*) was < 0.01 µM throughout.

`C[C@@H]1CC(c2cccc(-c3csc(NC(=O)CNC(=O)c4ccn(S(C)(=O)=O)c4)n3)c2)=C[C@H](C)O1` (racemic) [Compound 391]: the IC50 on BRM (read-out: BRM IP50) and at BRG-1 (read-out: BRG1 IP50) was < 0.01 µM throughout.

Take `CS(=O)(=O)n1ccc(C(=O)NCC(=O)Nc2nc(-c3cccc([C@@H]4CCCCO4)c3)cs2)c1` (racemic) [Compound 392]: the IC50 at BRM (read-out: BRM IP50) and on BRG-1 (read-out: BRG1 IP50) was > 0.01 µM throughout.

Take `CS(=O)(=O)n1ccc(C(=O)NCC(=O)Nc2nc(-c3cccc(N4C[C@H]5C[C@@H]4C[C@H]5O)c3)cs2)c1` (racemic) [Compound 468]: the IC50 on BRM (read-out: BRM IP50) and at BRG-1 (read-out: BRG1 IP50) was > 0.1 µM throughout.

As to `CS(=O)(=O)n1ccc(C(=O)NCC(=O)Nc2nc(-c3cccc(N4C[C@H]5C[C@@H]4C[C@@H]5O)c3)cs2)c1` (racemic) [Compound 500], the IC50 at BRM (read-out: BRM IP50) was > 0.01 µM; at BRG-1 (read-out: BRG1 IP50), > 0.1 µM.

Turning to `C[C@@H]1CO[C@@H]2CN(c3cccc(-c4csc(NC(=O)CNC(=O)c5ccn(C(C)(C)C)c5)n4)n3)C[C@H]12` (racemic) [Compound 649], the IC50 at BRM (read-out: BRM IP50) and at BRG-1 (read-out: BRG1 IP50) was > 0.01 µM each time.

As to `CC(C)(C)n1ccc(C(=O)NCC(=O)Nc2nc(-c3cccc(N4CC[C@@H]5CCO[C@H]5C4)n3)cs2)c1` (racemic) [Compound 650], the IC50 on BRM (read-out: BRM IP50) is > 0.01 µM; at BRG-1 (read-out: BRG1 IP50), > 0.1 µM.

Turning to `C[C@@H]1CCN(c2cccc(-c3csc(NC(=O)CNC(=O)c4ccn(C(C)(C)C)c4)n3)n2)C[C@H]1F` (racemic) [Compound 702, 1-tert-butyl-N-[2-[[4-[6-[(3S,4R)-3-fluoro-4-methyl-1-piperidyl]-2-pyridyl]thiazol-2-yl]amino]-2-oxo-ethyl]pyrrole-3-carboxamide], the IC50 at BRM (read-out: BRM IP50) is > 0.01 µM; on BRG-1 (read-out: BRG1 IP50), > 0.1 µM.

For `CC(C)(C)n1ccc(C(=O)NCC(=O)Nc2nc(-c3cccc(N4C[C@H]5CC(F)(F)[C@H]5C4)n3)cs2)c1` (racemic) [Compound 703], the IC50 at BRM (read-out: BRM IP50) and at BRG-1 (read-out: BRG1 IP50) was > 0.1 µM in each case.

With `C[C@@H]1CN(c2cccc(-c3csc(NC(=O)CNC(=O)c4ccn(C(C)(C)C)c4)n3)n2)C[C@@H]1F` (racemic) [Compound 724], the IC50 on BRM (read-out: BRM IP50) and on BRG-1 (read-out: BRG1 IP50) was > 0.01 µM each time.

In the case of `C[C@@H]1CN(c2cccc(-c3csc(NC(=O)CNC(=O)c4ccn([C@]5(C)CCOC5)c4)n3)n2)C[C@H](C)O1` (single isomer, unassigned) [Compound 490], the IC50 at BRM (read-out: BRM IP50) is > 0.01 µM; at BRG-1 (read-out: BRG1 IP50) it was > 0.1 µM.

As for `C[C@@H]1CN(c2cccc(-c3csc(NC(=O)CNC(=O)c4ccn([C@@]5(C)CCOC5)c4)n3)n2)C[C@H](C)O1` (single isomer, unassigned) [Compound 491], the IC50 on BRM (read-out: BRM IP50) and at BRG-1 (read-out: BRG1 IP50) was > 0.01 µM each time.

Regarding `CN(C)Cc1cc(-c2cccc(-c3csc(NC(=O)CNC(=O)c4ccn(S(C)(=O)=O)c4)n3)c2)ccn1` [Compound 1, N-(2-((4-(3-(2-((dimethylamino)methyl)pyridin-4-yl)phenyl)thiazol-2-yl)amino)-2-oxoethyl)-1-(methylsulfonyl)-1H-pyrrole-3-carboxamide], the IC50 at BRM (read-out: BRM IP50 (μM)*) and at BRG-1 (read-out: BRG1 IP50 (μM)*) was < 0.01 µM in each case.

Regarding `CC(C)n1ccc(C(=O)NCC(=O)Nc2nc(-c3cccc(-c4ccn(C)n4)c3)cs2)c1` [Compound 2, 1-isopropyl-N-(2-((4-(3-(1-methyl-1H-pyrazol-3-yl)phenyl)thiazol-2-yl)amino)-2-oxoethyl)-1H-pyrrole-3-carboxamide], the IC50 at BRM (read-out: BRM IP50 (μM)*) and at BRG-1 (read-out: BRG1 IP50 (μM)*) was > 0.01 µM in each case.

For `CC(C)(C)n1cnc(C(=O)NCC(=O)Nc2nc(-c3cccc(C#N)c3)cs2)c1` [Compound 3, 1-(tert-butyl)-N-(2-((4-(3-cyanophenyl)thiazol-2-yl)amino)-2-oxoethyl)-1H-imidazole-4-carboxamide], the IC50 on BRM (read-out: BRM IP50 (μM)*) and at BRG-1 (read-out: BRG1 IP50 (μM)*) was > 1 µM in each case.

In the case of `CS(=O)(=O)n1ccc(C(=O)NCC(=O)Nc2nc(-c3cnn(-c4ccncc4)c3)cs2)c1` [Compound 6, 1-(methylsulfonyl)-N-(2-oxo-2-((4-(1-(pyridin-4-yl)-1H-pyrazol-4-yl)thiazol-2-yl)amino)ethyl)-1H-pyrrole-3-carboxamide], the IC50 at BRM (read-out: BRM IP50 (μM)*) and at BRG-1 (read-out: BRG1 IP50 (μM)*) was > 0.1 µM each time.

Take `CN1CCc2ccc(-c3csc(NC(=O)CNC(=O)c4ccn(C(C)(C)C)c4)n3)cc2C1=O` [Compound 7, 1-(tert-butyl)-N-(2-((4-(2-methyl-1-oxo-1,2,3,4-tetrahydroisoquinolin-7-yl)thiazol-2-yl)amino)-2-oxoethyl)-1H-pyrrole-3-carboxamide]: the IC50 on BRM (read-out: BRM IP50 (μM)*) and at BRG-1 (read-out: BRG1 IP50 (μM)*) was > 0.01 µM throughout.

On to `CC(C)(O)Cn1ccc(-c2cccc(-c3csc(NC(=O)CNC(=O)c4ccn(C(C)(C)C)c4)n3)c2)n1` [Compound 8, 1-(tert-butyl)-N-(2-((4-(3-(1-(2-hydroxy-2-methylpropyl)-1H-pyrazol-3-yl)phenyl)thiazol-2-yl)amino)-2-oxoethyl)-1H-pyrrole-3-carboxamide], for which the IC50 on BRM (read-out: BRM IP50 (μM)*) and at BRG-1 (read-out: BRG1 IP50 (μM)*) was > 0.01 µM each time.

As for `CS(=O)(=O)n1ccc(C(=O)NCC(=O)Nc2nc(-c3cccc(-c4ccnc(N)c4)c3)cs2)c1` [Compound 9, N-(2-((4-(3-(2-aminopyridin-4-yl)phenyl)thiazol-2-yl)amino)-2-oxoethyl)-1-(methylsulfonyl)-1H-pyrrole-3-carboxamide], the IC50 on BRM (read-out: BRM IP50 (μM)*) and on BRG-1 (read-out: BRG1 IP50 (μM)*) was < 0.01 µM each time.

For the compound `C[C@@H]1CN(c2cccc(-c3csc(NC(=O)CNC(=O)c4ccn(S(C)(=O)=O)c4)n3)c2)C[C@H](C)O1` [Compound 10], the IC50 on BRM (read-out: BRM IP50 (μM)*) and on BRG-1 (read-out: BRG1 IP50 (μM)*) was < 0.01 µM throughout.

As to `CO[C@H]1CCCN(c2cccc(-c3csc(NC(=O)CNC(=O)c4ccn(S(C)(=O)=O)c4)n3)c2)C1` [Compound 11, (S)—N-(2-((4-(3-(3-methoxypiperidin-1-yl)phenyl)thiazol-2-yl)amino)-2-oxoethyl)-1-(methylsulfonyl)-1H-pyrrole-3-carboxamide], the IC50 on BRM (read-out: BRM IP50 (μM)*) and on BRG-1 (read-out: BRG1 IP50 (μM)*) was > 0.01 µM throughout.

`Cn1c(=O)ccc2ccc(-c3csc(NC(=O)CNC(=O)c4ccn(S(C)(=O)=O)c4)n3)cc21` [Compound 12, N-(2-((4-(1-methyl-2-oxo-1,2-dihydroquinolin-7-yl)thiazol-2-yl)amino)-2-oxoethyl)-1-(methylsulfonyl)-1H-pyrrole-3-carboxamide]: the IC50 on BRM (read-out: BRM IP50 (μM)*) and at BRG-1 (read-out: BRG1 IP50 (μM)*) was > 0.01 µM throughout.

With `CN(C)C(=O)CN(C)c1cc(-c2cccc(-c3csc(NC(=O)CNC(=O)c4ccn(S(C)(=O)=O)c4)n3)c2)ccn1` [Compound 13, N-(2-((4-(3-(2-((2-(dimethylamino)-2-oxoethyl)(methyl)amino)pyridin-4-yl)phenyl)thiazol-2-yl)amino)-2-oxoethyl)-1-(methylsulfonyl)-1H-pyrrole-3-carboxamide], the IC50 on BRM (read-out: BRM IP50 (μM)*) and at BRG-1 (read-out: BRG1 IP50 (μM)*) was > 0.01 µM throughout.

As for `CS(=O)(=O)n1ccc(C(=O)NCC(=O)Nc2nc(-c3cccc(-c4ccnc(C5(C(=O)O)CC5)c4)c3)cs2)c1` [Compound 14, 1-(4-(3-(2-(2-(1-(methylsulfonyl)-1H-pyrrole-3-carboxamido)acetamido)thiazol-4-yl)phenyl)pyridin-2-yl)cyclopropanecarboxylic acid], the IC50 on BRM (read-out: BRM IP50 (μM)*) and at BRG-1 (read-out: BRG1 IP50 (μM)*) was < 0.01 µM in each case.

Take `CN(CC(=O)O)c1cc(-c2cccc(-c3csc(NC(=O)CNC(=O)c4ccn(S(C)(=O)=O)c4)n3)c2)ccn1` [Compound 15, 2-(methyl(4-(3-(2-(2-(1-(methylsulfonyl)-1H-pyrrole-3-carboxamido)acetamido)thiazol-4-yl)phenyl)pyridin-2-yl)amino)acetic acid]: the IC50 on BRM (read-out: BRM IP50 (μM)*) and on BRG-1 (read-out: BRG1 IP50 (μM)*) was < 0.01 µM throughout.

In the case of `CNC(=O)CN(C)c1cc(-c2cccc(-c3csc(NC(=O)CNC(=O)c4ccn(S(C)(=O)=O)c4)n3)c2)ccn1` [Compound 16, N-(2-((4-(3-(2-(methyl(2-(methylamino)-2-oxoethyl)amino)pyridin-4-yl)phenyl)thiazol-2-yl)amino)-2-oxoethyl)-1-(methylsulfonyl)-1H-pyrrole-3-carboxamide], the IC50 on BRM (read-out: BRM IP50 (μM)*) and at BRG-1 (read-out: BRG1 IP50 (μM)*) was < 0.01 µM each time.

Regarding `Cc1nc(-c2cccc(-c3csc(NC(=O)CNC(=O)c4ccn(S(C)(=O)=O)c4)n3)c2)c[nH]1` [Compound 17], the IC50 at BRM (read-out: BRM IP50 (μM)*) and at BRG-1 (read-out: BRG1 IP50 (μM)*) was > 0.01 µM throughout.
